In patent US20230398130A1, “METHODS AND COMPOSITIONS FOR DIFFERENTIATING STEM CELLS” (Massachusetts Institute of Technology, priority 2020, published 2023):
Structures can show the parent of a compound that is named as a salt.

How the values were obtained:
ISC-enriched organoids [1] = assay: Primary screen, 384-well 2.5-D organoid differentiation (ENR+CD, 6 days): basal lysozyme secretion (LYZ.NS); type: cell-based, murine; details: for Dose.FC.LYZ.NS: primary screen, FC vs plate median; for Z.LYZ.NS: standard z score of FC
Excerpt: (§1) High-throughput screening.

ISC-enriched organoids [2] = assay: Primary screen, 384-well 2.5-D organoid differentiation (ENR+CD, 6 days): carbachol-induced lysozyme secretion (LYZ.S); type: cell-based, murine; details: primary screen, FC vs plate median
Excerpt: as §1

ISC-enriched organoids [3] = assay: Secondary (validation) screen, 384-well 2.5-D, ENR+CD 6 days, n=8 wells, vs ENR+CD+DMSO control: ATP (CTG); type: cell-based, murine; design: key to Dose.FC.CTG: log10 fold change vs median of vehicle control wells
Experimental: (§2) Drugs were tested at a narrowed dose range around each treatment's identified optimal dose from the primary screen (4× below, 2× above and below).
as §1
(§3) Secondary lysozyme secretion assay screen. Confirmatory secondary screening with primary hits was performed using the above 384-well plate method. The screen was conducted with 4-plate replicates with a base media of ENR+CD. Media was supplemented with compound at day 0 and day 3 (n=8 well replicates per dose) at four different doses: two-fold above, two-fold below, and four-fold below the optimal final dose for each respective treatment. Additionally, each plate carried a large number of ENR+DMSO or ENR+CD+DMSO (vehicle) control wells (n=100 for ATP, and n=25 for LYZ.NS and LYZ.S) for robust normalization. ATP, non-stimulated lysozyme activity and CCh-stimulated lysozyme activity was again measured and the collected data was again processed in a custom R-script, per primary screen with slight modification. Values were log10 transformed, and a plate-wise FC was calculated for each well based on the median value of ENR+CD+DMSO (vehicle) control wells to normalize plate to plate variability.

ISC-enriched organoids [4] = assay: Secondary (validation) screen, 384-well 2.5-D, ENR+CD 6 days, n=8 wells, vs ENR+CD+DMSO control: basal lysozyme secretion (LYZ.NS); type: cell-based, murine; design: key to Dose.FC.LYZ.NS: log10 fold change vs median of vehicle control wells
Experimental: as §2, §1, §3

ISC-enriched organoids [5] = assay: Secondary (validation) screen, 384-well 2.5-D, ENR+CD 6 days, n=8 wells, vs ENR+CD+DMSO control: carbachol-induced lysozyme secretion (LYZ.S); type: cell-based, murine
Experimental: as §2, §1, §3

ISC-enriched organoids [6] = assay: Primary screen, 384-well 2.5-D organoid differentiation (ENR+CD, 6 days, Target Selective Inhibitor Library, vs whole-plate median): ATP (CellTiter-Glo 3D, CTG); details: for Dose.FC.CTG: FC vs plate median; for Z.CTG: standard z score of FC

## CCc1cncnc1N1CCN(Cc2nc3ccc(C(F)(F)F)cc3[nH]2)CC1 [PF-4708671]
ISC-enriched organoids [1]; Dose 0.08 uM
  Dose.FC.LYZ.NS: 0.075 log 2 fold change
  Z.LYZ.NS: 0.654
ISC-enriched organoids [1]; Dose 0.40 uM
  Dose.FC.LYZ.NS: 0.122 log 2 fold change
  Z.LYZ.NS: 1.059
ISC-enriched organoids [1]; Dose 2.00 uM
  Dose.FC.LYZ.NS: 0.198 log 2 fold change
  Z.LYZ.NS: 1.721
ISC-enriched organoids [1]; Dose 10.00 uM
  Dose.FC.LYZ.NS: 0.034 log 2 fold change
  Z.LYZ.NS: 0.297
ISC-enriched organoids [2]; Dose 0.08 uM
  Dose.FC.LYZ.S: 0.136 log 2 fold change
ISC-enriched organoids [2]; Dose 0.40 uM
  Dose.FC.LYZ.S: 0.172 log 2 fold change
ISC-enriched organoids [2]; Dose 2.00 uM
  Dose.FC.LYZ.S: 0.209 log 2 fold change
ISC-enriched organoids [2]; Dose 10.00 uM
  Dose.FC.LYZ.S: −0.024 log 2 fold change
ISC-enriched organoids [3]; Dose 0.50 uM
  Dose.FC.CTG: −0.049
  Z.CTG: −0.443
  repSSMD.CTG: −0.324
ISC-enriched organoids [3]; Dose 1.00 uM
  Dose.FC.CTG: −0.039
  Z.CTG: −0.354
  repSSMD.CTG: −0.284
ISC-enriched organoids [3]; Dose 4.00 uM
  Dose.FC.CTG: 0.067
  Z.CTG: 0.601
  repSSMD.CTG: 0.414
ISC-enriched organoids [3]; dose 2.00 uM
  Dose.FC.CTG: −0.076
  Z.CTG: −0.684
  repSSMD.CTG: −0.558
ISC-enriched organoids [4]; Dose 0.50 uM
  Dose.FC.LYZ.NS: 0.005
  Z.LYZ.NS: 0.039
  repSSMD.LYZ.NS: 0.058
ISC-enriched organoids [4]; Dose 1.00 uM
  Dose.FC.LYZ.NS: −0.200
  Z.LYZ.NS: −1.600
  repSSMD.LYZ.NS: −1.909
ISC-enriched organoids [4]; Dose 4.00 uM
  Dose.FC.LYZ.NS: 0.015
  Z.LYZ.NS: 0.120
  repSSMD.LYZ.NS: 0.171
ISC-enriched organoids [4]; dose 2.00 uM
  Dose.FC.LYZ.NS: −0.221
  Z.LYZ.NS: −1.764
  repSSMD.LYZ.NS: −2.529
ISC-enriched organoids [5]; Dose 0.50 uM
  Z.LYZ.S: −0.305
  log10 fold change in stimulated lysozyme secretion vs vehicle control: −0.040
  repSSMD.LYZ.S: −0.496
ISC-enriched organoids [5]; Dose 1.00 uM
  Z.LYZ.S: −1.879
  log10 fold change in stimulated lysozyme secretion vs vehicle control: −0.245
  repSSMD.LYZ.S: −2.451
ISC-enriched organoids [5]; Dose 4.00 uM
  Z.LYZ.S: −0.320
  log10 fold change in stimulated lysozyme secretion vs vehicle control: −0.042
  repSSMD.LYZ.S: −0.503
ISC-enriched organoids [5]; dose 2.00 uM
  Z.LYZ.S: −2.088
  log10 fold change in stimulated lysozyme secretion vs vehicle control: −0.272
  repSSMD.LYZ.S: −3.604
ISC-enriched organoids [6]; Dose 0.08 uM, primary screen
  Dose.FC.CTG: 0.261 log 2 fold change
ISC-enriched organoids [6]; Dose 0.08 uM
  Z.CTG: 0.623
ISC-enriched organoids [6]; Dose 0.40 uM, primary screen
  Dose.FC.CTG: 0.268 log 2 fold change
ISC-enriched organoids [6]; Dose 0.40 uM
  Z.CTG: 0.640
ISC-enriched organoids [6]; Dose 2.00 uM, primary screen
  Dose.FC.CTG: 0.302 log 2 fold change
ISC-enriched organoids [6]; Dose 2.00 uM
  Z.CTG: 0.721
ISC-enriched organoids [6]; Dose 10.00 uM, primary screen
  Dose.FC.CTG: −0.321 log 2 fold change
ISC-enriched organoids [6]; Dose 10.00 uM
  Z.CTG: −0.766

## N#CC[C@H](C1CCCC1)n1cc(-c2ncnc3[nH]ccc23)cn1 [Ruxolitinib (INCB018424), Ruxolitinib]
ISC-enriched organoids [3]; Dose 2.50 uM
  Z.CTG: −0.128
  repSSMD.CTG: −0.090
ISC-enriched organoids [3]; Dose 5.00 uM
  Z.CTG: −2.016
  repSSMD.CTG: −1.168
ISC-enriched organoids [3]; Dose 20.00 uM
  Z.CTG: 1.496
  repSSMD.CTG: 0.952
ISC-enriched organoids [3]; dose 10.00 uM
  Z.CTG: −1.380
  repSSMD.CTG: −1.030
ISC-enriched organoids [4]; Dose 2.50 uM
  Z.LYZ.NS: −1.251
  repSSMD.LYZ.NS: −1.701
ISC-enriched organoids [4]; Dose 5.00 uM
  Z.LYZ.NS: −1.098
  repSSMD.LYZ.NS: −1.569
ISC-enriched organoids [4]; Dose 20.00 uM
  Z.LYZ.NS: 0.522
  repSSMD.LYZ.NS: 0.930
ISC-enriched organoids [4]; dose 10.00 uM
  Z.LYZ.NS: −0.671
  repSSMD.LYZ.NS: −1.103
ISC-enriched organoids [5]; Dose 2.50 uM
  Z.LYZ.S: −1.400
  repSSMD.LYZ.S: −1.806
ISC-enriched organoids [5]; Dose 5.00 uM
  Z.LYZ.S: −1.667
  repSSMD.LYZ.S: −2.281
ISC-enriched organoids [5]; Dose 20.00 uM
  Z.LYZ.S: 0.208
  repSSMD.LYZ.S: 0.382
ISC-enriched organoids [5]; dose 10.00 uM
  Z.LYZ.S: −1.289
  repSSMD.LYZ.S: −2.212
ISC-enriched organoids [6]; Dose 0.08 uM, primary screen
  Z.CTG (standard z score): 1.093
ISC-enriched organoids [6]; Dose 0.40 uM, primary screen
  Z.CTG (standard z score): 0.867
ISC-enriched organoids [6]; Dose 2.00 uM, primary screen
  Z.CTG (standard z score): 1.062
ISC-enriched organoids [6]; Dose 10.00 uM, primary screen
  Z.CTG (standard z score): 1.140

## COc1cc(Nc2c(C#N)cnc3cc(OCCCN4CCN(C)CC4)c(OC)cc23)c(Cl)cc1Cl [Bosutinib (SKI-606), Bosutinib]
ISC-enriched organoids [3]; Dose 0.02 uM
  Z.CTG: 1.944
  repSSMD.CTG: 1.251
ISC-enriched organoids [3]; Dose 0.04 uM
  Z.CTG: 1.254
  repSSMD.CTG: 0.876
ISC-enriched organoids [3]; dose 0.08 uM
  Z.CTG: 0.735
  repSSMD.CTG: 0.584
ISC-enriched organoids [4]; Dose 0.02 uM
  Z.LYZ.NS: 1.061
  repSSMD.LYZ.NS: 1.620
ISC-enriched organoids [4]; Dose 0.04 uM
  Z.LYZ.NS: −0.535
  repSSMD.LYZ.NS: −0.666
ISC-enriched organoids [4]; dose 0.08 uM
  Z.LYZ.NS: −0.562
  repSSMD.LYZ.NS: −0.903
ISC-enriched organoids [5]; Dose 0.02 uM
  repSSMD.LYZ.S: 1.147
ISC-enriched organoids [5]; Dose 0.04 uM
  Z.LYZ.S: −0.663
  repSSMD.LYZ.S: −0.977
ISC-enriched organoids [5]; dose 0.08 uM
  Z.LYZ.S: −0.554
  repSSMD.LYZ.S: −0.892
ISC-enriched organoids [6]; primary screen, dose 0.08 uM
  Z.CTG: 1.499
ISC-enriched organoids [6]; primary screen, dose 0.40 uM
  Z.CTG: 0.720
ISC-enriched organoids [6]; primary screen, dose 2.00 uM
  Z.CTG: −0.405
ISC-enriched organoids [6]; primary screen, dose 10.00 uM
  Z.CTG: −1.595

## C[C@H](NCc1ccc(OCc2cccc(F)c2)cc1)C(N)=O [Safinamide Mesylate]
ISC-enriched organoids [3]; Dose 0.50 uM
  Z.CTG: −0.127
  repSSMD.CTG: −0.118
ISC-enriched organoids [3]; Dose 1.00 uM
  Z.CTG: −0.743
  repSSMD.CTG: −0.547
ISC-enriched organoids [3]; Dose 4.00 uM
  Z.CTG: −0.022
  repSSMD.CTG: −0.013
ISC-enriched organoids [3]; dose 2.00 uM
  Z.CTG: −0.098
  repSSMD.CTG: −0.060
ISC-enriched organoids [4]; Dose 0.50 uM
  Z.LYZ.NS: −1.244
  repSSMD.LYZ.NS: −1.484
ISC-enriched organoids [4]; Dose 1.00 uM
  Z.LYZ.NS: −1.847
  repSSMD.LYZ.NS: −2.985
ISC-enriched organoids [4]; Dose 4.00 uM
  Z.LYZ.NS: −0.272
  repSSMD.LYZ.NS: −0.431
ISC-enriched organoids [4]; dose 2.00 uM
  Z.LYZ.NS: −0.368
  repSSMD.LYZ.NS: −0.556
ISC-enriched organoids [5]; Dose 0.50 uM
  Z.LYZ.S: −1.637
  repSSMD.LYZ.S: −2.413
ISC-enriched organoids [5]; Dose 1.00 uM
  Z.LYZ.S: −2.259
  repSSMD.LYZ.S: −3.571
ISC-enriched organoids [5]; Dose 4.00 uM
  Z.LYZ.S: −0.658
  repSSMD.LYZ.S: −0.942
ISC-enriched organoids [5]; dose 2.00 uM
  Z.LYZ.S: −0.757
  repSSMD.LYZ.S: −1.243
ISC-enriched organoids [6]; Dose 0.08 uM, primary screen
  Z.CTG (standard z score): 0.633
ISC-enriched organoids [6]; Dose 0.40 uM, primary screen
  Z.CTG (standard z score): 0.575
ISC-enriched organoids [6]; Dose 2.00 uM, primary screen
  Z.CTG (standard z score): 0.627
ISC-enriched organoids [6]; Dose 10.00 uM, primary screen
  Z.CTG (standard z score): 0.883
